From paper PMC10586084 (Journal of Enzyme Inhibition and Medicinal Chemistry, 2023)
Values joined by “and” are separate entries in the source; they are usually repeats but may differ in a detail not shown here. Equal entries are not always repeated.

Tests used:
[1] = system: HuTuP108 primary glioblastoma cells; assay: cell proliferation analysis; type: cell-based, human; details: 72 h; for effect of combination on the effect of TMZ: compound 10 µM + TMZ 500 µM
[2] = target: hCA IX (Homo sapiens, UniProt Q16790); assay: biochemical; type: biochemical; details: for Ki: KI hCA IX, stopped flow technique, mean from three assays; for Selectivity index I/IX: ratio KI hCA I / KI hCA IX; for Selectivity index II/IX: ratio KI hCA II / KI hCA IX; for Selectivity index IV/IX: ratio KI hCA IV / KI hCA IX
[3] = system: HD-MB03 and DAOY medulloblastoma cell lines; assay: cell proliferation analysis; type: cell-based, human; details: 72 h; for effect of combination on efficacy of CDDP in reducing cell viability: compound 10 µM + cis-Pt 1.8 µM, both MB cell lines
[4] = cytotoxicity in resting peripheral blood lymphocytes; type: cell-based; details: human
[5] = system: HuTuP192 primary glioblastoma cells; assay: cell proliferation analysis; type: cell-based, human; details: 72 h; for effect of combination on the effect of TMZ: compound 10 µM + TMZ 500 µM, HuTuP192
[6] = target: hCA II (Homo sapiens, UniProt P00918); assay: stopped-flow CO2 hydrase assay, hCA II; type: biochemical; details: stopped flow technique, mean from three assays
[7] = target: hCA XII (Homo sapiens, UniProt O43570); assay: stopped-flow CO2 hydrase assay, hCA XII; type: biochemical; details: for Ki: KI hCA XII, stopped flow technique, mean from three assays; for Selectivity index I/XII: ratio KI hCA I / KI hCA XII; for Selectivity index II/XII: ratio KI hCA II / KI hCA XII; for Selectivity index IV/XII: ratio KI hCA IV / KI hCA XII
Sequence of hCA XII (O43570 25-354): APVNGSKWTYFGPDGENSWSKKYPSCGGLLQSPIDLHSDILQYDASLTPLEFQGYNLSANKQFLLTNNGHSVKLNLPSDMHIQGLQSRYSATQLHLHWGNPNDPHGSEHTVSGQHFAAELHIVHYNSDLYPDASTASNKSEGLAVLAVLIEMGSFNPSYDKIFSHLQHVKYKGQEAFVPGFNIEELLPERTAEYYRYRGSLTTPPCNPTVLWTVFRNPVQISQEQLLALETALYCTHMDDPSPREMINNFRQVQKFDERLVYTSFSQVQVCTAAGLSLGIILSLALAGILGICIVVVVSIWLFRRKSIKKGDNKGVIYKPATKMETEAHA

[8] = target: hCA IV (Homo sapiens, UniProt P22748); assay: stopped-flow CO2 hydrase assay, hCA IV; type: biochemical; details: stopped flow technique, mean from three assays
Sequence of hCA IV (P22748 19-284 limits assumed): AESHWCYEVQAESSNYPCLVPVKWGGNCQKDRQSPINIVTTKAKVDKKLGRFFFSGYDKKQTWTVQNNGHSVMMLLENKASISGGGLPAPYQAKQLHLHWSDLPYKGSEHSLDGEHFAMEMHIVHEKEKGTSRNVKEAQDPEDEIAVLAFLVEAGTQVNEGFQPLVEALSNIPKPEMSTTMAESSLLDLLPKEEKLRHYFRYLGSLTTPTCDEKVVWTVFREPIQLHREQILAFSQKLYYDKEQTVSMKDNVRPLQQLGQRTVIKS

[9] = target: hCA I (Homo sapiens, UniProt P00915); assay: stopped-flow CO2 hydrase assay, hCA I; type: biochemical; details: stopped flow technique, mean from three assays
Sequence of hCA I (P00915 whole entry): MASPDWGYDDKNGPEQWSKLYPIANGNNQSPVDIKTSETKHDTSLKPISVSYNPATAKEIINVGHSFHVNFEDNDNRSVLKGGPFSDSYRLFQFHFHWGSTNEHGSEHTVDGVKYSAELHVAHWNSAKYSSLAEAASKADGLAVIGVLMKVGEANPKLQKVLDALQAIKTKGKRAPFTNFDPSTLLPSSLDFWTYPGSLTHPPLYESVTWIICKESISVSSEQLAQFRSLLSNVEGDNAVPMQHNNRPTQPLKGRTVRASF

Compound | Ki [2] [nM] | Selectivity index I/IX [2] | Selectivity index II/IX [2] | Selectivity index IV/IX [2] | Ki [6] [nM] | Ki [7] [nM] | Selectivity index I/XII [7] | Selectivity index II/XII [7] | Selectivity index IV/XII [7] | Ki [8] [nM] | Ki [9] [nM] | response of cells to TMZ ([1]; TMZ 500 µM) | effect of combination on efficacy of CDDP in reducing cell viability [3] | effect of combination on the effect of TMZ [1] | GI50 at 72 h [4] [nM] | effect of combination on the effect of TMZ [5] | viability reduction by CDDP alone ([3]; CDDP concentration used for combination (cis-Pt 1.8 µM)) | decrease in viability ([5]; 10 µM, HuTuP192, hypoxic conditions)
Cn1nnc2c(C(N)=O)ncn2c1=O [TMZ, temozolomide, reference compound] |  |  |  |  |  |  |  |  |  |  |  | resistant |  |  |  |  |  | 
NS(=O)(=O)c1ccc(Nc2nc3nccc(-c4ccccc4Cl)n3n2)cc1 [Compound 1m, 4-((7-(2-Chlorophenyl)-[1,2,4]triazolo[1,5-a]pyrimidin-2-yl)amino)benzenesulfonamide] | 14.8 | 618 | 10 and 10.5 | 438 | 155 | 16.9 | 541 | 9.2 | 384 | 6480 | 9150 |  | significantly improved the efficacy of CDDP | did not significantly improve the effect of TMZ | > 10000 | did not significantly improve the effect of TMZ |  | 
NS(=O)(=O)c1ccc(Nc2nc3nccc(-c4ccc(I)cc4)n3n2)cc1 [Compound 1p, 4-((7-(4-Iodophenyl)-[1,2,4]triazolo[1,5-a]pyrimidin-2-yl)amino)benzenesulfonamide] | 95.7 | 79.7 | 5.8 | 92.5 | 559 | 39 | 196 | 14.3 | 227 | 8850 | 7630 |  |  |  |  |  |  | 
Cc1ccc(-c2ccnc3nc(Nc4ccc(S(N)(=O)=O)cc4)nn23)cc1 [Compound 1t, 4-((7-(p-Tolyl)-[1,2,4]triazolo[1,5-a]pyrimidin-2-yl)amino)benzenesulfonamide] | 41.5 | 35.5 | 1.5 | 55.1 | 64 | 61.2 | 24.0 | 1.0 | 37.4 | 2290 | 1470 |  |  |  |  |  |  | 
[NH2][Pt]([NH2])([Cl])[Cl] [CDDP, cisplatin, reference compound] |  |  |  |  |  |  |  |  |  |  |  |  |  |  |  |  | around 50% | 
NS(=O)(=O)c1ccc(Nc2nc3nccc(-c4ccc([N+](=O)[O-])cc4)n3n2)cc1 [Compound 1q, 4-((7-(4-Nitrophenyl)-[1,2,4]triazolo[1,5-a]pyrimidin-2-yl)amino)benzenesulfonamide] | 69.4 | 61.8 | 1.2 | 46.9 | 86.3 | 42.1 | 102 | 2.0 | 77.4 | 3260 | 4290 |  |  |  |  |  |  | 
Cc1ccccc1-c1ccnc2nc(Nc3ccc(S(N)(=O)=O)cc3)nn12 [Compound 1v, 4-((7-(o-Tolyl)-[1,2,4]triazolo[1,5-a]pyrimidin-2-yl)amino)benzenesulfonamide] | 4.7 | 570 | 9.1 | 1877 | 42.8 | 30.4 | 88.1 | 1.4 | 290 | 8820 | 2680 |  |  |  |  |  |  | 
NS(=O)(=O)c1ccc(Nc2nc3nccc(-c4ccc(Cl)cc4)n3n2)cc1 [Compound 1k, 4-((7-(4-Chlorophenyl)-[1,2,4]triazolo[1,5-a]pyrimidin-2-yl)amino)benzenesulfonamide] | 74.1 | 30.4 | 0.8 | 53.9 | 62.4 | 29.2 | 77.1 | 2.1 | 137 | 4000 | 2250 |  |  |  |  |  |  | 
NS(=O)(=O)c1ccc(Nc2nc3nccc(-c4c(F)cccc4F)n3n2)cc1 [Compound 1i, 4-((7-(2,6-Difluorophenyl)-[1,2,4]triazolo[1,5-a]pyrimidin-2-yl)amino)benzenesulfonamide] | 21.9 | 33.9 | 0.8 | 32.1 | 17.6 | 22.5 | 33 | 0.8 | 31.2 | 703 | 743 |  |  |  |  |  |  | 

Now from value to compound, other results behind:

Ki [2] [nM] | Selectivity index I/IX [2] | Selectivity index II/IX [2] | Selectivity index IV/IX [2] | Ki [6] [nM] | Ki [7] [nM] | Selectivity index I/XII [7] | Selectivity index II/XII [7] | Selectivity index IV/XII [7] | Ki [8] [nM] | Ki [9] [nM] | Compound | response of cells to TMZ ([1]; TMZ 500 µM) | effect of combination on efficacy of CDDP in reducing cell viability [3] | effect of combination on the effect of TMZ [1] | GI50 at 72 h [4] [nM] | effect of combination on the effect of TMZ [5] | viability reduction by CDDP alone ([3]; CDDP concentration used for combination (cis-Pt 1.8 µM)) | decrease in viability ([5]; 10 µM, HuTuP192, hypoxic conditions)
35.8 | 27.7 | 2.6 | 42.4 | 95.2 | 9 | 110 | 10.6 | 169 | 1520 | 993 | COc1ccc(-c2ccnc3nc(Nc4ccc(S(N)(=O)=O)cc4)nn23)cc1OC [Compound 1ab, 4-((7-(3,4-Dimethoxyphenyl)-[1,2,4]triazolo[1,5-a]pyrimidin-2-yl)amino)benzenesulfonamide] |  |  |  |  |  |  | 
46.8 | 96.7 | 2.4 | 21.5 | 110 | 27.1 | 167 | 4.1 | 37.2 | 1010 | 4530 | COc1cc(OC)cc(-c2ccnc3nc(Nc4ccc(S(N)(=O)=O)cc4)nn23)c1 [Compound 1aa, 4-((7-(3,5-Dimethoxyphenyl)-[1,2,4]triazolo[1,5-a]pyrimidin-2-yl)amino)benzenesulfonamide] |  |  |  |  |  |  | 
11 | 200 | 6.6 | 575 | 72.9 | 31.6 | 69.5 | 2.3 | 200 | 6320 | 2200 | COc1ccccc1-c1ccnc2nc(Nc3ccc(S(N)(=O)=O)cc3)nn12 [Compound 1y, 4-((7-(2-Methoxyphenyl)-[1,2,4]triazolo[1,5-a]pyrimidin-2-yl)amino)benzenesulfonamide] |  |  | did not significantly improve the effect of TMZ | > 10000 | did not significantly improve the effect of TMZ |  | 
50.8 | 32.0 | 1.8 | 39.4 | 89.6 | 39.8 | 40.9 | 2.2 | 50.3 | 2000 | 1630 | COc1ccc(-c2ccnc3nc(Nc4ccc(S(N)(=O)=O)cc4)nn23)cc1 [Compound 1w, 4-((7-(4-Methoxyphenyl)-[1,2,4]triazolo[1,5-a]pyrimidin-2-yl)amino)benzenesulfonamide] |  |  |  |  |  |  | 
5.1 | 207 | 6.6 | 110 | 33.8 | 12.5 | 84.5 | 2.7 | 44.8 | 559 | 1060 | COc1cccc(-c2ccnc3nc(Nc4ccc(S(N)(=O)=O)cc4)nn23)c1 [Compound 1x, 4-((7-(3-Methoxyphenyl)-[1,2,4]triazolo[1,5-a]pyrimidin-2-yl)amino)benzenesulfonamide] |  | significantly improved the efficacy of CDDP |  | > 10000 |  |  | most potent
30.4 | 216 | 4.06 | 197 | 124 | 46.4 | 142 | 2.7 | 129 | 5980 | 6580 | NS(=O)(=O)c1ccc(Nc2nc3nccc(-c4cccc(Cl)c4)n3n2)cc1 [Compound 1l, 4-((7-(3-Chlorophenyl)-[1,2,4]triazolo[1,5-a]pyrimidin-2-yl)amino)benzenesulfonamide] |  |  |  |  |  |  | 
